The subject of data set [1] is potential s-RNYs-target mRNAs. The data set is described as follows: Quantitative RT-PCR of potential s-RNYs-target mRNAs in PA-treated BMDMs. The data set is classed as cell-based, mouse. As to conditions: of 32 mRNAs (about 62%), FIG. 11. Here is the method:
FIG. 11: Quantitative RT-PCR analysis of the potential s-RNYs-target mRNAs in BMDMs transfected with siAgo2, 2′-OMe-RNA antisense oligonucleotides (AS) to s-RNYs, or control. BMDMs were left unstimulated (black column) or stimulated with 0.25 mM of PA for 18 hr, and total RNA was isolated and analyzed. Data were normalized by U2 snRNA and are presented as mean and s.d. (n=6).
BMDMs and NIH-3T3 cells (ATCC) were transiently transfected for 48 hr with Lipofectamine 2000 (Invitrogen) according to the manufacturer's instructions. siRNAs were transfected at the final concentration of 24 nM, while 2′-OMe-RNA antisense oligonucleotides to s-RNYs (Eurogentec) were transfected at the final concentration of 100 nM. […]
RNA expression by quantitative RT-PCR was carried out by using standard procedures. […] For s-RNYs detection by quantitative RT-PCR a stem-loop quantitative RT-PCR method was used according to Chen et al. (Chen, C., et al. (2005). Nucleic acids research 33, e179). […] This method allows the detection of the s-RNYs derived from only the 5′ end of the precursor by quantitative RT-PCR analysis, namely the s-RNY1-5p and s-RNY3-5p from mouse and s-RNY1-5p, s-RNY3-5p, and s-RNY4-5p from human. Quantitative RT-PCRs using Sybr Green and TaqMan (Invitrogen) for cel-miR-39 were performed on a StepONE system (Applied Biosystem). […]

For data set [2], the system named is BMDMs. The data set is described as follows: Quantitative RT-PCR of s-RNYs from the medium of BMDMs. The class given is cell-based, mouse. As to conditions: 0.25 mM PA 18 hr, FIG. 14B. Here is the method: FIG. 14: (A) Quantitative RT-PCR analysis of the indicated s-RNYs in BMDMs incubated with 0.25 mM of PA the indicated time. The data were normalized by U2 snRNA. (B) Quantitative RT-PCR analysis of the indicated s-RNYs from the medium of BMDMs. Cells were left unstimulated or incubated with 0.25 mM PA for 18 hr. Data were normalized by using the synthetic non-mammalian cel-miR-39, which was added to the samples before the RNA extraction. Data are presented as mean and s.d. (n=8).
RNA expression by quantitative RT-PCR was carried out by using standard procedures. Briefly, for mRNA, total RNA was isolated from cells using Trizol and cDNA was synthesized with a random hexonucleotides using Superscript III (Invitrogen). For s-RNYs detection by quantitative RT-PCR a stem-loop quantitative RT-PCR method was used according to Chen et al. (Chen, C., et al. (2005). Nucleic acids research 33, e179). Briefly, total RNA was isolated from cells, tissue, or immunoprecipitation using Trizol (Invitrogen) according to the manufacturer's instructions. […] This method allows the detection of the s-RNYs derived from only the 5′ end of the precursor by quantitative RT-PCR analysis, namely the s-RNY1-5p and s-RNY3-5p from mouse and s-RNY1-5p, s-RNY3-5p, and s-RNY4-5p from human. Quantitative RT-PCRs using Sybr Green and TaqMan (Invitrogen) for cel-miR-39 were performed on a StepONE system (Applied Biosystem). […]

The test system of data set [3] is BMDMs. As to the kind of experiment: Apoptosis assay in BMDMs (annexin V / Dapi, flow cytometry). As to conditions: FIGS. 13A and 13B. The data set is classed as cell-based, mouse. Here is the method: FIG. 13: Apoptotic data by fluorocytometry for BMDMs overexpressing s-RNYs, transfected with either 2′-OMe-RNA antisense oligonucleotides to s-RNYs or control. BMDMs were stimulated with 0.25 mM of PA for 18 hr (A), 0.25 μM thapsigargin (Tg) in combination with […] of oxLDL for 28 hr (B), or left unstimulated (C). Percentage of apoptotic and necrotic cells was determined by staining with Dapi and annexin […]. Data are presented as mean and s.d. (n=3). Apoptosis was assayed in BMDMs by staining with Alexa 488-conjugated annexin V and Dapi as previously described (Jacquel, A., et al., 2012. Blood 119(19): 4527-4531). The number of annexin V- and Dapi-positive cells was counted and expressed as a percent of the total number of cells from duplicate wells.

In data set [4] the test system is bone marrow-derived macrophages (BMDMs). As to the kind of experiment: s-RNY expression in stimulated BMDMs, stem-loop quantitative RT-PCR. The data set is classed as cell-based, mouse. As to conditions: in combination with thapsigargin (ER stress). Here is the method:
Bone marrow cells were collected from femurs and tibias of ten-week-old male C57BL/6J mice by flushing with sterile medium as previously described (T. Ruggiero, M. et al (2009) FASEB J 23:2898-2908). To differentiate into macrophages, bone marrow cells (10^6) were plated in 10-cm plates in 7 ml of BMDM medium (DMEM supplemented with 20% low-endotoxin fetal bovine serum, 30% L929-cell conditioned medium, 1% I-glutamine, 1% Pen/Strep, 0.5% Na pyruvate, and 0.1% β-mercaptoethanol), and fed with 2.5 ml of fresh medium every 2 days for 7 days. Human primary macrophages were prepared from peripheral blood monocytes obtained from healthy donors (Jacquel, A., et al. (2012). Blood 119, 4527-4531) in agreement with the French legislation on human biomedical research. All participants provided written informed consent attesting they had received all the information they needed about the study and they agreed in accordance with appropriate national regulations.
RNA expression by quantitative RT-PCR was carried out by using standard procedures. Briefly, for mRNA, total RNA was isolated from cells using Trizol and cDNA was synthesized with a random hexonucleotides using Superscript III (Invitrogen). For s-RNYs detection by quantitative RT-PCR a stem-loop quantitative RT-PCR method was used according to Chen et al. (Chen, C., et al. (2005). Nucleic acids research 33, e179). Briefly, total RNA was isolated from cells, tissue, or immunoprecipitation using Trizol (Invitrogen) according to the manufacturer's instructions. RNA extraction from extracellular medium, blood plasma, and serum was performed as previously described (Turchinovich, A., et al (2011). Nucleic acids research 39, 7223-7233). Briefly, 1.2 ml of Trizol LS were added to 0.4 ml of blood plasma, serum or media. Then (i) 5 pg of synthetic miRNA-39 from Caenorhabditis elegans (cel-miR-39) were added as a spike-in control for purification efficiency; (ii) 1.2 μl of glycogen (10 mg/ml) were added to enhance the efficiency of RNA column binding. Purification of extracted total RNA was performed with miRNeasy columns (Qiagen) according to the manufacturer's instructions. RNA was eluted in 30 μl of RNase-free water. cDNA was synthesized using a hairpin long oligonucleotide. This method allows the detection of the s-RNYs derived from only the 5′ end of the precursor by quantitative RT-PCR analysis, namely the s-RNY1-5p and s-RNY3-5p from mouse and s-RNY1-5p, s-RNY3-5p, and s-RNY4-5p from human. Quantitative RT-PCRs using Sybr Green and TaqMan (Invitrogen) for cel-miR-39 were performed on a StepONE system (Applied Biosystem). The primer sequences are detailed in Table 1. […]

Data set [5] shares this test system. The data set is described as above. The data set is classed as cell-based, mouse. As to conditions: for s-RNY expression: stimulus given alone.
Data set [6] has as its system s-RNY1-3p binding sites (BS) from KFL2 mRNA sequence in NIH-3T3 cells. The data set is described as follows: Luciferase reporter assay with s-RNY1-3p binding sites from KLF2 mRNA. The data set is classed as cell-based. As to conditions: PA treatment, FIG. 12C. From the text:
FIG. 12: (A) RNA duplex expected to result from base pairing of KFL2 mRNA with s-RNY1-3p. A-U and G-C base pairs are represented by solid lines; G-U wobble base pairs are represented by dotted lines, shown herein as SEQ ID NOS 58 and 59, respectively. (B) The sequence of the predicted target site of KFL2 mRNA from the indicated species, shown herein as SEQ ID NOS 60-63, respectively. The s-RNY1-3p seed complementary sequence is enclosed by a black box. Nucleotide conservation across the species is indicated by asterisks. (C) Relative luciferase activity of reporter constructs containing two either wt or mutant s-RNY1-3p binding sites (BS) from KFL2 mRNA sequence in NIH-3T3 cells transfected with either 2′-OMe-RNA antisense oligonucleotide to s-RNY1-3p or control. Cells were left unstimulated or stimulated with 0.25 mM of PA for 18 hr. The data were normalized using Renilla activity. Data are presented as mean and s.d. (n=4). Student's t-test: **P<0.01.
NIH-3T3 cells (80% confluence in 96-well plates) were transfected with Lipofectamine 2000® according to the manufacturer's instructions. Luciferase reporter assay was performed as previously described (Repetto, E., et al. (2012). PLoS genetics 8, e1002823).
For orientation: Reporter assays use an easily measured gene product as a stand-in for the process of interest.

The subject of data set [7] is p38, NF-κB, JNK. As to the kind of experiment: p38, NF-κB and JNK signaling activation in BMDMs. The data set is classed as cell-based, mouse. The settings on record: time course, data not shown. Here is the method:
BMDMs and NIH-3T3 cells (ATCC) were transiently transfected for 48 hr with Lipofectamine 2000 (Invitrogen) according to the manufacturer's instructions. siRNAs were transfected at the final concentration of 24 nM, while 2′-OMe-RNA antisense oligonucleotides to s-RNYs (Eurogentec) were transfected at the final concentration of 100 nM. When required, cell lysates were incubated at room temperature with RNase A (10 mg/ml, Ambion) for 30 min. Three-hundred micrograms of protein was immunoprecipitated with Protein A-Dynabeads (Invitrogen)-coupled antibodies for 16 hr at 4° C. with rotation. Immunoprecipitates were washed four times with lysis buffer and resuspended in SDS protein loading buffer. Proteins were subjected to SDS-PAGE, electroblotted onto PVDF membranes, and probed with different antibodies as indicated.
Recombinant Ago2 and hnRNP A1 were purchased from Sino Biological Inc. and CliniSciences, respectively, while recombinant KSRP was a gift from Dr. R. Gherzi. Mouse monoclonal anti-hnRNP A1 (4B10), mouse monoclonal anti-c-Myc (9E10), goat anti-actin (1-19), and IκBα (H-4) antibodies were purchased from SantaCruz. Rabbit anti-La/SSB and anti-Ro60 (TROVE2) antibodies were purchased from GmbH. Anti-Ago2 antibody was purchased from Wako Chemicals while rabbit anti-KLF2 and anti-NOS2A antibodies were from Millipore. Anti-KSRP antibody was a gift from Dr. R. Gherzi. […]

Data set [8] has as its system human primary macrophages. As to the kind of experiment: Northern blot of s-RNYs in human primary macrophages. As to conditions: data not shown. The data set is classed as cell-based.

Take “5′-GUUGUAUUGUUUAGCGAUU-3′ (listed as RNA, chemistry not given here) [siAgo2]”: in data set [1], the “potential target mRNAs whose expression was Ago2 and s-RNYs dependent” value is on record as “at least 20/32”.
In the case of `CCCCCCCCCCCCCCCC(=O)O` [PA, palmitic acid], the “enrichment of s-RNYs in extracellular environment compared to control” value in data set [2] is ~100 fold. The “apoptosis in macrophages treated with pro-atherogenic stimuli” value in data set [3] is recorded as “apoptosis activation”. The s-RNY expression result in data set [4] is on record as “increased markedly”. Besides, the “time by which s-RNY expression was induced” value in data set [5] (0.25 mM PA, FIG. 14A) is ≤ 9 h. Also, the s-RNY expression entry in data set [5] is recorded as “induced”. In data set [6], the “luciferase activity of the mutant reporter construct” value is given as “not affected” and the “luciferase activity of the reporter construct containing the wt sequence” value was “repressed”. In data set [7] (after 9 hr of treatment), the “NF-κB activation (IκBα degradation)” value is “enhanced”. Moreover, in data set [7] (starting by 9 hr), the “p38 activation (p38 phosphorylation)” value is reported as “enhanced”.
In the case of `CN[C@@H]1C[C@H]2O[C@@](C)([C@@H]1OC)n1c3ccccc3c3c4c(c5c6ccccc6n2c5c31)C(=O)NC4` [STS, staurosporine], in data set [8], the “expression of s-RNYs (s-RNY1-5p, s-RNY1-3p, s-RNY3-5p and s-RNY4-5p)” value is on record as “induced”.
For `CCCCC/C=C\C/C=C\CCCCCCCC(=O)O` [linoleic acid], the s-RNY expression entry in data set [4] and in data set [5] was “did not induce” throughout.
`CCCCCCCC/C=C\CCCCCCCC(=O)O` [oleic acid]: the s-RNY expression entry in data set [4] and in data set [5] was “did not induce” each time.
Take `CCCCCCCCCCCCCCCCCC(=O)O` [stearic acid]: the s-RNY expression entry in data set [4] is given as “increased markedly”; in data set [5] it was “induced”.
On to `C/C=C(/C)C(=O)O[C@H]1C(C)=C2[C@H]([C@@H]1OC(=O)CCCCCCC)[C@@](C)(OC(C)=O)C[C@H](OC(=O)CCC)[C@@]1(O)[C@H]2OC(=O)[C@@]1(C)O` [thapsigargin], for which the s-RNY expression result in data set [5] is “no effect”.

Source of the values: patent US10208351B2, “RNY-derived small RNAs as biomarkers for atherosclerosis-related disorders” (INSTITUT NATIONAL DE LA SANTE ET DE LA RECHERCHE MEDICALE …, priority 2013, dated 2019).
